Converted amounts (≈) assume the structure as drawn.
Columns and labels:
Escherichia coli [1] = experiment: Potentiation of colistin-induced antimicrobial activity against Escherichia coli YD626 assessed as colistin MIC at 30 uM incubated for overnight duration by CLSI based method (reference value: 1 ug/ml); format: functional
Escherichia coli [2] = experiment: Potentiation of colistin-induced antimicrobial activity against Escherichia coli YD626 expressing mcr1 gene assessed as reduction in colistin MIC at 30 uM incubated for overnight duration by CLSI based method relative to colistin alone control; format: functional
Klebsiella pneumoniae [3] = experiment: Potentiation of colistin-induced antimicrobial activity against Klebsiella pneumoniae 2210291 assessed as reduction in colistin MIC at 30 uM incubated for overnight duration by CLSI based method relative to colistin alone control; format: functional
Acinetobacter baumannii [4] = experiment: Potentiation of colistin-induced antimicrobial activity against Acinetobacter baumannii SM1536 assessed as reduction in colistin MIC at 30 uM incubated for overnight duration by CLSI based method relative to colistin alone control; format: functional
Acinetobacter baumannii [5] = experiment: Potentiation of colistin-induced antimicrobial activity against Acinetobacter baumannii SM1536 expressing mcr1 gene assessed as colistin MIC at 30 uM incubated for overnight duration by CLSI based method (reference value: 64 ug/ml); format: functional
Klebsiella pneumoniae [6] = experiment: Toxicity against Klebsiella pneumoniae 2210291 incubated for overnight duration by CLSI based method; format: organism-based; conditions: in vivo
Acinetobacter baumannii [7] = experiment: Toxicity against Acinetobacter baumannii ATCC 17978 incubated for overnight duration by CLSI based method; format: organism-based; conditions: in vivo
Escherichia coli [8] = experiment: Toxicity against Escherichia coli ATCC 25922 incubated for overnight duration by CLSI based method; format: organism-based; conditions: in vivo
Acinetobacter baumannii [9] = experiment: Potentiation of colistin-induced antimicrobial activity against Acinetobacter baumannii SM1536 expressing mcr1 gene assessed as colistin MIC at 15 uM incubated for overnight duration by CLSI based method (reference value: 64 ug/ml); format: functional
Escherichia coli [10] = experiment: Toxicity against Escherichia coli YD626 incubated for overnight duration by CLSI based method; format: organism-based; conditions: in vivo
Escherichia coli [11] = experiment: Potentiation of colistin-induced antimicrobial activity against Escherichia coli YD626 expressing mcr1 gene assessed as reduction in colistin MIC at 15 uM incubated for overnight duration by CLSI based method relative to colistin alone control; format: functional
Acinetobacter baumannii [12] = experiment: Potentiation of colistin-induced antimicrobial activity against Acinetobacter baumannii ATCC 17978 expressing mcr1 gene assessed as reduction in colistin MIC at 15 uM incubated for overnight duration by CLSI based method relative to colistin alone control; format: functional
Escherichia coli [13] = experiment: Potentiation of colistin-induced antimicrobial activity against Escherichia coli ATCC 25922 expressing mcr1 gene assessed as reduction in colistin MIC at 15 uM incubated for overnight duration by CLSI based method relative to colistin alone control; format: functional
Escherichia coli [14] = experiment: Potentiation of colistin-induced antimicrobial activity against Escherichia coli ATCC 25922 expressing mcr1 gene assessed as colistin MIC at 15 uM incubated for overnight duration by CLSI based method (reference value: 8 ug/ml); format: functional
Escherichia coli [15] = experiment: Potentiation of colistin-induced antimicrobial activity against Escherichia coli ATCC 25922 expressing mcr1 gene assessed as reduction in colistin MIC at 30 uM incubated for overnight duration by CLSI based method relative to colistin alone control; format: functional
Acinetobacter baumannii [16] = experiment: Potentiation of colistin-induced antimicrobial activity against Acinetobacter baumannii ATCC 17978 expressing mcr1 gene assessed as colistin MIC at 15 uM incubated for overnight duration by CLSI based method (reference value: 16 ug/ml); format: functional
Klebsiella pneumoniae [17] = experiment: Toxicity against Klebsiella pneumoniae BAA2146 incubated for overnight duration by CLSI based method; format: organism-based; conditions: in vivo
Escherichia coli [18] = experiment: Potentiation of colistin-induced antimicrobial activity against Escherichia coli YD626 assessed as reduction in colistin MIC at 30 uM incubated for overnight duration by CLSI based method relative to colistin alone control; format: functional
Acinetobacter baumannii [19] = experiment: Potentiation of colistin-induced antimicrobial activity against Acinetobacter baumannii ATCC 17978 assessed as colistin MIC at 30 uM incubated for overnight duration by CLSI based method (reference value: 2 ug/ml); format: functional
Acinetobacter baumannii [20] = experiment: Potentiation of colistin-induced antimicrobial activity against multidrug resistant Acinetobacter baumannii BAA1605 assessed as minimum drug concentration needed to cause colsitin MIC of 0.125 ug/ml incubated for overnight duration by CLSI based method; format: functional
Klebsiella pneumoniae [21] = experiment: Potentiation of colistin-induced antimicrobial activity against Klebsiella pneumoniae 2210291 expressing mcr1 gene assessed as reduction in colistin MIC at 15 uM incubated for overnight duration by CLSI based method relative to colistin alone control; format: functional
Acinetobacter baumannii [22] = experiment: Potentiation of colistin-induced antimicrobial activity against Acinetobacter baumannii SM1536 expressing mcr1 gene assessed as reduction in colistin MIC at 30 uM incubated for overnight duration by CLSI based method relative to colistin alone control; format: functional
Klebsiella pneumoniae [23] = experiment: Potentiation of colistin-induced antimicrobial activity against Klebsiella pneumoniae 2210291 expressing mcr1 gene assessed as colistin MIC at 30 uM incubated for overnight duration by CLSI based method (reference value: 16 ug/ml); format: functional
Acinetobacter baumannii [24] = experiment: Potentiation of colistin-induced antimicrobial activity against Acinetobacter baumannii SM1536 assessed as colistin MIC at 30 uM incubated for overnight duration by CLSI based method (reference value: 2 ug/ml); format: functional
Acinetobacter baumannii [25] = experiment: Toxicity against Acinetobacter baumannii SM1536 incubated for overnight duration by CLSI based method; format: organism-based; conditions: in vivo
Klebsiella pneumoniae [26] = experiment: Potentiation of colistin-induced antimicrobial activity against Klebsiella pneumoniae 2210291 assessed as colistin MIC at 30 uM incubated for overnight duration by CLSI based method (reference value: 1 ug/ml); format: functional
Escherichia coli [27] = experiment: Potentiation of colistin-induced antimicrobial activity against Escherichia coli YD626 expressing mcr1 gene assessed as colistin MIC at 30 uM incubated for overnight duration by CLSI based method (reference value: 4 ug/ml); format: functional
Escherichia coli [28] = experiment: Potentiation of colistin-induced antimicrobial activity against Escherichia coli YD626 expressing mcr1 gene assessed as colistin MIC at 15 uM incubated for overnight duration by CLSI based method (reference value: 4 ug/ml); format: functional
Acinetobacter baumannii [29] = experiment: Potentiation of colistin-induced antimicrobial activity against Acinetobacter baumannii ATCC 17978 assessed as reduction in colistin MIC at 30 uM incubated for overnight duration by CLSI based method relative to colistin alone control; format: functional
Escherichia coli [30] = experiment: Potentiation of colistin-induced antimicrobial activity against Escherichia coli ATCC 25922 assessed as reduction in colistin MIC at 30 uM incubated for overnight duration by CLSI based method relative to colistin alone control; format: functional
Acinetobacter baumannii [31] = experiment: Potentiation of colistin-induced antimicrobial activity against multidrug resistant Acinetobacter baumannii 5075 assessed as minimum drug concentration needed to cause colsitin MIC of 0.125 ug/ml incubated for overnight duration by CLSI based method; format: functional
Acinetobacter baumannii [32] = experiment: Potentiation of colistin-induced antimicrobial activity against Acinetobacter baumannii SM1536 expressing mcr1 gene assessed as reduction in colistin MIC at 15 uM incubated for overnight duration by CLSI based method relative to colistin alone control; format: functional
Acinetobacter baumannii [33] = experiment: Potentiation of colistin-induced antimicrobial activity against Acinetobacter baumannii ATCC 17978 expressing mcr1 gene assessed as reduction in colistin MIC at 30 uM incubated for overnight duration by CLSI based method relative to colistin alone control; format: functional

SMILES	MIC (Escherichia coli [1])	fold change (FC) (Escherichia coli [2])	fold change (FC) (Klebsiella pneumoniae [3])	fold change (FC) (Acinetobacter baumannii [4])	MIC (Acinetobacter baumannii [5])	MIC (Klebsiella pneumoniae [6])	MIC (Acinetobacter baumannii [7])	MIC (Escherichia coli [8])	MIC (Acinetobacter baumannii [9])	MIC (Escherichia coli [10])	fold change (FC) (Escherichia coli [11])	fold change (FC) (Acinetobacter baumannii [12])	fold change (FC) (Escherichia coli [13])	MIC (Escherichia coli [14])	fold change (FC) (Escherichia coli [15])	MIC (Acinetobacter baumannii [16])	MIC (Klebsiella pneumoniae [17])	fold change (FC) (Escherichia coli [18])	MIC (Acinetobacter baumannii [19])	MIC (Acinetobacter baumannii [20])	further results
CCCCCCc1ccc(-c2cn(C(C)C)c(N)n2)cc1	0.00049 µg/mL	256	64	128	1 µg/mL	200 µM (≈ 57.1 µg/mL)	200 µM (≈ 57.1 µg/mL)	200 µM (≈ 57.1 µg/mL)	8 µg/mL	200 µM (≈ 57.1 µg/mL)	2	4	0	8 µg/mL	512	4 µg/mL	> 200 µM	2048	0.016 µg/mL	25 µM	fold change (FC) (Klebsiella pneumoniae [21]): 2; fold change (FC) (Acinetobacter baumannii [22]): 64; MIC (Klebsiella pneumoniae [23]): 0.5 µg/mL; MIC (Acinetobacter baumannii [24]): 0.016 µg/mL; MIC (Acinetobacter baumannii [25]): 200 µM (≈ 57.1 µg/mL); MIC (Klebsiella pneumoniae [26]): 0.031 µg/mL; MIC (Escherichia coli [27]): 0.016 µg/mL; MIC (Escherichia coli [28]): 2 µg/mL; fold change (FC) (Acinetobacter baumannii [29]): 128; fold change (FC) (Escherichia coli [30]): 256; MIC (Acinetobacter baumannii [31]): 20 µM; fold change (FC) (Acinetobacter baumannii [32]): 4; fold change (FC) (Acinetobacter baumannii [33]): 32
CCCCCc1ccc(C(=O)NCCn2cc(CCCCCc3cnc(N)n3Cc3ccc(CCCC)cc3)nn2)cc1	< 0.00049 µg/mL	>2048	64	>2048	2 µg/mL	> 200 µM	> 200 µM	> 200 µM	8 µg/mL	> 200 µM	64	8	16	0.5 µg/mL	32	2 µg/mL	> 200 µM	>2048	< 0.00098 µg/mL	5 µM	fold change (FC) (Klebsiella pneumoniae [21]): 16; fold change (FC) (Acinetobacter baumannii [22]): 32; MIC (Klebsiella pneumoniae [23]): 0.25 µg/mL; MIC (Acinetobacter baumannii [24]): < 0.00098 µg/mL; MIC (Acinetobacter baumannii [25]): > 200 µM; MIC (Klebsiella pneumoniae [26]): 0.016 µg/mL; MIC (Escherichia coli [27]): < 0.002 µg/mL; MIC (Escherichia coli [28]): 0.063 µg/mL; fold change (FC) (Acinetobacter baumannii [29]): >2048; fold change (FC) (Escherichia coli [30]): >2048; MIC (Acinetobacter baumannii [31]): 10 µM; fold change (FC) (Acinetobacter baumannii [32]): 8; fold change (FC) (Acinetobacter baumannii [33]): 32
CCCCCCc1ccc(-c2cn(CC)c(N)n2)cc1	0.00049 µg/mL	>2048	32	256	0.25 µg/mL	> 200 µM	100 µM (≈ 27.1 µg/mL)	200 µM (≈ 54.3 µg/mL)	8 µg/mL	200 µM (≈ 54.3 µg/mL)	8	4	2	4 µg/mL	>2048	4 µg/mL	> 200 µM	2048	0.0039 µg/mL	15 µM	fold change (FC) (Klebsiella pneumoniae [21]): 4; fold change (FC) (Acinetobacter baumannii [22]): 256; MIC (Klebsiella pneumoniae [23]): 0.125 µg/mL; MIC (Acinetobacter baumannii [24]): 0.0078 µg/mL; MIC (Acinetobacter baumannii [25]): 100 µM (≈ 27.1 µg/mL); MIC (Klebsiella pneumoniae [26]): 0.031 µg/mL; MIC (Escherichia coli [27]): < 0.0019 µg/mL; MIC (Escherichia coli [28]): 0.5 µg/mL; fold change (FC) (Acinetobacter baumannii [29]): 512; fold change (FC) (Escherichia coli [30]): 2048; MIC (Acinetobacter baumannii [31]): 15 µM; fold change (FC) (Acinetobacter baumannii [32]): 8; fold change (FC) (Acinetobacter baumannii [33]): 32
